Source: patent US11266655B2, “Methods and compositions for treating urea cycle disorders” (Camp4 Therapeutics Corporation, priority 2019, dated 2022)
Several values for one entry are separate records, joined by “and”; a condition that tells them apart may be missing. Identical values can stand only once. Like-named read-outs stand apart in the source and are kept apart here.

What was measured:
ARG1 = experiment: RNA-seq of compound-treated primary human hepatocytes, ARG1 expression; assay type: cell-based; conditions: primary human hepatocytes; for Fold change (Log 2) vs untreated, ARG1 expression: RNA-seq (Table 7); for Relative ARGI level vs Untreated (±Standard Deviation): triplicate (Table 17, FIG. 9)
urea cycle genes = experiment: RNA-seq of primary human hepatocytes, compounds that modulate multiple urea cycle-related genes; assay type: cell-based; conditions: primary human hepatocytes, RNA-seq; for Up-regulated Genes: urea cycle-related genes significantly increased (Table 10)
OTC = experiment: RNA-seq of compound-treated primary human hepatocytes, OTC expression; assay type: cell-based; conditions: primary human hepatocytes, RNA-seq
CPS1 = experiment: RNA-seq of compound-treated primary human hepatocytes, CPS1 expression; assay type: cell-based; conditions: primary human hepatocytes; for CPS1 expression, Fold change (Log 2) vs untreated: RNA-seq; for Relative CPS1 level vs Untreated (±Standard Deviation): triplicate (Table 19, FIG. 11)
NAGS = assay type: cell-based, human; conditions: for Relative NAGS level vs Untreated (±Standard Deviation): primary human hepatocytes, triplicate (Table 21, FIG. 13)
ASS1 = experiment: RNA-seq of compound-treated primary human hepatocytes, ASS1 expression; assay type: cell-based; conditions: primary human hepatocytes
SLC25A13 = experiment: RNA-seq of compound-treated primary human hepatocytes, SLC25A13 expression; assay type: cell-based; conditions: primary human hepatocytes, triplicate (Table 23, FIG. 15)
SLC25A15 = experiment: RNA-seq of compound-treated primary human hepatocytes, SLC25A15 expression; assay type: cell-based; conditions: primary human hepatocytes, triplicate (Table 24, FIG. 16A-B)

## Activin
ARG1
  Fold change (Log 2) vs untreated, ARG1 expression: 2.01 Log 2
Urea cycle genes
  number of urea cycle genes whose expression was significantly up-regulated: four
  Up-regulated Genes: NAGS, CPS1, OTC, ARG1
OTC
  OTC expression, Fold change (Log 2) vs untreated: 0.94 Log 2
CPS1
  CPS1 expression, Fold change (Log 2) vs untreated: 2.23 Log 2
NAGS
  Fold change (Log 2) vs untreated, NAGS expression: 0.69 Log 2

## TNF-α
Urea cycle genes
  number of urea cycle genes whose expression was significantly up-regulated: four
  Up-regulated Genes: CPS1, ASS1, OTC, ARG1
OTC
  OTC expression, Fold change (Log 2) vs untreated: 0.87 Log 2
CPS1
  CPS1 expression, Fold change (Log 2) vs untreated: 2.31 Log 2
ASS1; RNA-seq (Table 4)
  Fold change (Log 2) vs untreated, ASS1 expression: 0.58 Log 2

## FGF: Fibroblast Growth Factor-acidic (FGF-acidic), also known as FGF-1
ARG1
  Fold change (Log 2) vs untreated, ARG1 expression: 1.24 Log 2
Urea cycle genes
  number of urea cycle genes whose expression was significantly up-regulated: three
  Up-regulated Genes: CPS1, OTC, ARG1
OTC
  OTC expression, Fold change (Log 2) vs untreated: 0.56 Log 2
CPS1
  CPS1 expression, Fold change (Log 2) vs untreated: 1.72 Log 2

## HGF/SF: Hepatocyte Growth Factor, also known as scatter factor (SF)
ARG1
  Fold change (Log 2) vs untreated, ARG1 expression: 1.51 Log 2
Urea cycle genes
  number of urea cycle genes whose expression was significantly up-regulated: four
  Up-regulated Genes: NAGS, CPS1, OTC, ARG1
OTC
  OTC expression, Fold change (Log 2) vs untreated: 0.56 Log 2
CPS1
  CPS1 expression, Fold change (Log 2) vs untreated: 2.02 Log 2
NAGS
  Fold change (Log 2) vs untreated, NAGS expression: 0.56 Log 2

## COc1ccc(-c2ccc3c(N4CCOC[C@@H]4C)nc(N4CCOC[C@@H]4C)nc3n2)cc1CO [AZD8055]
SLC25A13; 3 μM
  Relative SLC25A13 level vs Untreated (±Standard Deviation): 1.33 ± 0.06
SLC25A13; 10 μM
  Relative SLC25A13 level vs Untreated (±Standard Deviation): 1.54 ± 0.12
ARG1; 1 μM
  Relative ARGI level vs Untreated (±Standard Deviation): 1.34 ± 0.24
ARG1; 3 μM
  Relative ARGI level vs Untreated (±Standard Deviation): 1.42 ± 0.03
ARG1; 10 μM
  Relative ARGI level vs Untreated (±Standard Deviation): 1.35 ± 0.08
SLC25A15; 3 μM
  Relative SLC25A15 level vs Untreated (±Standard Deviation): 1.33 ± 0.06 and 1.85 ± 0.26
SLC25A15; 10 μM
  Relative SLC25A15 level vs Untreated (±Standard Deviation): 1.54 ± 0.12 and 1.68 ± 0.26
CPS1; 0.3 μM
  Relative CPS1 level vs Untreated (±Standard Deviation): 1.38 ± 0.27
CPS1; 1 μM
  Relative CPS1 level vs Untreated (±Standard Deviation): 1.38 ± 0.67
CPS1; 3 μM
  Relative CPS1 level vs Untreated (±Standard Deviation): 1.60 ± 0.07
NAGS; 0.3 μM
  Relative NAGS level vs Untreated (±Standard Deviation): 1.31 ± 0.20
NAGS; 1 μM
  Relative NAGS level vs Untreated (±Standard Deviation): 1.41 ± 0.28
NAGS; 10 μM
  Relative NAGS level vs Untreated (±Standard Deviation): 1.93 ± 0.02
NAGS; Example 11, relative mRNA vs DMSO
  increase in NAGS gene expression (Tables 21, 22, FIG. 13, 14): greatest increase
ASS1; 10 μM, triplicate (Table 15, FIG. 7)
  Relative ASS1 level vs Untreated (±Standard Deviation): 1.44 ± 0.27

B1: Wnt3a: secreted signaling protein of the WNT gene family (protein, UniProt P56704 19-352, looked up)
Protein Wnt-3a: SYPIWWSLAVGPQYSSLGSQPILCASIPGLVPKQLRFCRNYVEIMPSVAEGIKIGIQECQHQFRGRRWNCTTVHDSLAIFGPVLDKATRESAFVHAIASAGVAFAVTRSCAEGTAAICGCSSRHQGSPGKGWKWGGCSEDIEFGGMVSREFADARENRPDARSAMNRHNNEAGRQAIASHMHLKCKCHGLSGSCEVKTCWWSQPDFRAIGDFLKDKYDSASEMVVEKHRESRGWVETLRPRYTYFKVPTERDLVYYEASPNFCEPNPETGSFGTRDRTCNVSSHGIDGCDLLCCGRGHNARAERRREKCRCVFHWCCYVSCQECTRVYDVHTCK
ARG1
  Fold change (Log 2) vs untreated, ARG1 expression: 2.07 Log 2
Urea cycle genes
  number of urea cycle genes whose expression was significantly up-regulated: four
  Up-regulated Genes: CPS1, OTC, ARG1, SLC25A15
OTC
  OTC expression, Fold change (Log 2) vs untreated: 0.92 Log 2
CPS1
  CPS1 expression, Fold change (Log 2) vs untreated: 2.6 Log 2

B2: Nodal: 13 kDa member of the TGF-B superfamily (protein, UniProt Q96S42 238-347, looked up)
Nodal homolog: HHLPDRSQLCRKVKFQVDFNLIGWGSWIIYPKQYNAYRCEGECPNPVGEEFHPTNHAYIQSLLKRYQPHRVPSTCCAPVKTKPLSMLYVDNGRVLLDHHKDMIVEECGCL
ARG1
  Fold change (Log 2) vs untreated, ARG1 expression: 2.05 Log 2
Urea cycle genes
  number of urea cycle genes whose expression was significantly up-regulated: three
  Up-regulated Genes: CPS1, OTC, ARG1
OTC
  OTC expression, Fold change (Log 2) vs untreated: 0.68 Log 2
CPS1
  CPS1 expression, Fold change (Log 2) vs untreated: 2.44 Log 2

B3: Anti mullerian hormone: member of the TGF-B gene family which mediates male sexual differentiation (protein, UniProt P03971 452-560, looked up)
Muellerian-inhibiting factor: SAGATAADGPCALRELSVDLRAERSVLIPETYQANNCQGVCGWPQSDRNPRYGNHVVLLLKMQVRGAALARPPCCVPTAYAGKLLISLSEERISAHHVPNMVATECGCR
ARG1
  Fold change (Log 2) vs untreated, ARG1 expression: 2.06 Log 2
Urea cycle genes
  number of urea cycle genes whose expression was significantly up-regulated: three
  Up-regulated Genes: CPS1, OTC, ARG1
OTC
  OTC expression, Fold change (Log 2) vs untreated: 0.81 Log 2
CPS1
  CPS1 expression, Fold change (Log 2) vs untreated: 2.35 Log 2
